Source: paper PMC7300657 (EMBO Molecular Medicine, 2020)
Read-outs that look alike come from different tables or passages of the source.

Columns and labels:
[1] = biological target: BIKE (Homo sapiens, UniProt Q9NSY1); test: biochemical; format: binding
[2] = biological target: T1, GAK (Homo sapiens, UniProt O14976); test: biochemical; format: binding
T1 sequence (O14976 1-1311): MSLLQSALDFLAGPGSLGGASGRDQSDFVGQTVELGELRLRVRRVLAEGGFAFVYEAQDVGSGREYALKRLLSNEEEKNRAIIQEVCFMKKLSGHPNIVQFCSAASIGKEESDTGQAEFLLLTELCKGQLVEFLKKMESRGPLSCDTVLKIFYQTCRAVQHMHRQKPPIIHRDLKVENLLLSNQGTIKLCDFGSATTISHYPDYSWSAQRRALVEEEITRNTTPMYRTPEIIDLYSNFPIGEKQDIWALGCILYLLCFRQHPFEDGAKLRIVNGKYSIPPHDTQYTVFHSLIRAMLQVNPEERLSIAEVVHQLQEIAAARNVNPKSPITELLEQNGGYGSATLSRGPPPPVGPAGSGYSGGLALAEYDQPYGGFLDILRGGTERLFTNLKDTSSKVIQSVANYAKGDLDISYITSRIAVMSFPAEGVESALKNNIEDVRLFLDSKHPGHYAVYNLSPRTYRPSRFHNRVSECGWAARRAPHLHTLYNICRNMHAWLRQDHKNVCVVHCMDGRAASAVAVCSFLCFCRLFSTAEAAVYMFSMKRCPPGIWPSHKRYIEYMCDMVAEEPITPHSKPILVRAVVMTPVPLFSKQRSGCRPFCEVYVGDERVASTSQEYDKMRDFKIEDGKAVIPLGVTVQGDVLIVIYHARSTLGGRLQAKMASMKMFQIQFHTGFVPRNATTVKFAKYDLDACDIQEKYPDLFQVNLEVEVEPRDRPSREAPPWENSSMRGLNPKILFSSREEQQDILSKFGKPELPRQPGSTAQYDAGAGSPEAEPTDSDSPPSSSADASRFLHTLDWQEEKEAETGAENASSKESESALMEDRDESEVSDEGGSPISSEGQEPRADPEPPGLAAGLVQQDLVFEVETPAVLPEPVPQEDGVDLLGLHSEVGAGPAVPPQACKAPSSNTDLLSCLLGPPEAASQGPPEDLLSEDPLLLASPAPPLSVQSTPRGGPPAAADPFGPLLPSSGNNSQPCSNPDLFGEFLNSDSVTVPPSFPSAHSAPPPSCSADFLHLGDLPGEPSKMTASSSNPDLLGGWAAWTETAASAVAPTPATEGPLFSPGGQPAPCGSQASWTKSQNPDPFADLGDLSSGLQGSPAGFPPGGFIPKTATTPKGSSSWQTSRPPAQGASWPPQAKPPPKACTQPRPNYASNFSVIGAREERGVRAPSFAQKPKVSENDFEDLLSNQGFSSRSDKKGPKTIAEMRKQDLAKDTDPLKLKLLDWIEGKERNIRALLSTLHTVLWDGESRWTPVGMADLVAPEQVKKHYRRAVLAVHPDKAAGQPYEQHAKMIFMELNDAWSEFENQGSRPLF

[3] = biological target: STK16 (Homo sapiens, UniProt O75716); test: biochemical; format: binding
STK16, sequence (O75716 whole entry): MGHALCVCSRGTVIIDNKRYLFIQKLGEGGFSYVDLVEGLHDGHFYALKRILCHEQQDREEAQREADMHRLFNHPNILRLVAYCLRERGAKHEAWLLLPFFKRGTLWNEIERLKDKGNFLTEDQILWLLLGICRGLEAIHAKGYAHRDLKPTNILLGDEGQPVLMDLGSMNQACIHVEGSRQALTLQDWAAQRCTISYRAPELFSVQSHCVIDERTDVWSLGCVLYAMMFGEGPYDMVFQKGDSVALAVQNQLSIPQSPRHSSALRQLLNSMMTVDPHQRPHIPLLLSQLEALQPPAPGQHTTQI

[4] = biological target: AAK1 (Homo sapiens, UniProt Q2M2I8); test: biochemical
AAK1, sequence (Q2M2I8 whole entry): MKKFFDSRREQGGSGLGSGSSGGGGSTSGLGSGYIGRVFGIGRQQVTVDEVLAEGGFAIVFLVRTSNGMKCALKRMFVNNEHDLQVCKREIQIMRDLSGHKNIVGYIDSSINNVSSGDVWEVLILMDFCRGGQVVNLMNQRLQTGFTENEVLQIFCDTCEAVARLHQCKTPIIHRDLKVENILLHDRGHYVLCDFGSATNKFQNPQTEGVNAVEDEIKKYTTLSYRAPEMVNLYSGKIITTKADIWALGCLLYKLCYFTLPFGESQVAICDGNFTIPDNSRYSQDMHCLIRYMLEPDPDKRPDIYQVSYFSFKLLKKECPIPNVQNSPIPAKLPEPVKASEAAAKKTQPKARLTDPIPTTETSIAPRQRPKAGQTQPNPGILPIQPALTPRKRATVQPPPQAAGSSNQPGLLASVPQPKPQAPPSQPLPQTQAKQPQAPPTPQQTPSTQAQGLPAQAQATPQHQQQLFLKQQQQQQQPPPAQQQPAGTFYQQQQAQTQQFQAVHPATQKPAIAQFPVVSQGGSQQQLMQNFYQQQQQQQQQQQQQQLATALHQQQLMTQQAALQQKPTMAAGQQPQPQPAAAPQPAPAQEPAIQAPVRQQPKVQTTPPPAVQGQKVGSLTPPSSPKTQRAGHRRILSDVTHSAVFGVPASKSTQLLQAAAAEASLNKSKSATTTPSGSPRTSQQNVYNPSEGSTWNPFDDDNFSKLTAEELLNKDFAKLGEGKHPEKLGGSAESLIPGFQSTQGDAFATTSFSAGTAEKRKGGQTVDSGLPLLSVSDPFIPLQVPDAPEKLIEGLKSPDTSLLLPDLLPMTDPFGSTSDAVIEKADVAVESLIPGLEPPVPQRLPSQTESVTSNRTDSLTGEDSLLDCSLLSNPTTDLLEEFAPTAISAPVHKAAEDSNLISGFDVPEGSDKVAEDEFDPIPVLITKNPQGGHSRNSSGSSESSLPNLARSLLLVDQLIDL

[5] = system: cytokine‐induced JAK/STAT signaling; test: Cytokine-stimulated pSTAT inhibition in human leukocyte subpopulations (flow cytometry); format: cell-based; conditions: human CD4+ T cells, CD8+ T cells, NK cells, monocytes; 1 h preincubation, 15 min cytokine stimulation
Procedure: Leukocyte preparation and experimental design were largely performed as previously described (McInnes et al, 2019). Whole blood samples from healthy donors (N = 6) were apheresed, and leukocyte‐enriched fractions were transferred to the company Primity Bio (Fremont, CA, USA). […] Cytokines were used at the following concentrations: IL‐2 (4 ng/ml), IL‐3 (12 ng/ml), IL‐4 (350 pg/ml), IL‐6 (1.5 ng/ml), IL‐10 (12 ng/ml), IL‐15 (850 pg/ml), IL‐21 (200 pg/ml), IFN‐γ (100 pg/ml), G‐CSF (5 ng/ml), and GM‐CSF (5 pg/ml). The choice of cytokine concentrations and incubation conditions was optimized in order to ensure consistent signaling in alternate cell types and pSTAT readouts. After stimulation, cells were fixed, permeabilized, and fluorescence‐barcoded, and multicolor flow cytometry was performed as previously described to quantify STAT phosphorylation in gated leukocyte subpopulations (McInnes et al, 2019). For a given case (stimulation, cell type, and pSTAT combination), the IC50 was determined if there was a consistent response to the stimulus as described in the statistical analysis section. The primary pSTAT observed for each stimulus is reported. […]
IC50 values were determined by analyzing the mean fluorescence intensity (MFI) of cytokine‐stimulated samples in the presence of the designated concentration of compound. […]

[6] = system: SARS‐CoV‐2; format: cell-based; conditions: pretreatment 24 h with 400 and 800 nM, MOI 0.1, 48 h after infection, P < 0.05
[7] = system: primary human liver spheroids; test: Viability of primary human liver spheroids (intracellular ATP); format: cell-based; conditions: up to concentrations approximately eightfold higher than clinical AUC at 4 mg ([…]), n = 10
[8] = system: IL‐6; conditions: patients with active RA, inadequate response to methotrexate, P < 0.05
[9] = system: SARS‐CoV‐2
[10] = cited from earlier work
[11] = set-up: method as in Genovese et al, 2019; conditions: RA patients, 10,127 patients-year of exposure, up to 6.9 years; ref Genovese et al, 2019; cited from earlier work
[12] = system: JAK2; conditions: ref Fridman et al, 2010; cited from earlier work

BIKE, sequence (Q9NSY1 whole entry): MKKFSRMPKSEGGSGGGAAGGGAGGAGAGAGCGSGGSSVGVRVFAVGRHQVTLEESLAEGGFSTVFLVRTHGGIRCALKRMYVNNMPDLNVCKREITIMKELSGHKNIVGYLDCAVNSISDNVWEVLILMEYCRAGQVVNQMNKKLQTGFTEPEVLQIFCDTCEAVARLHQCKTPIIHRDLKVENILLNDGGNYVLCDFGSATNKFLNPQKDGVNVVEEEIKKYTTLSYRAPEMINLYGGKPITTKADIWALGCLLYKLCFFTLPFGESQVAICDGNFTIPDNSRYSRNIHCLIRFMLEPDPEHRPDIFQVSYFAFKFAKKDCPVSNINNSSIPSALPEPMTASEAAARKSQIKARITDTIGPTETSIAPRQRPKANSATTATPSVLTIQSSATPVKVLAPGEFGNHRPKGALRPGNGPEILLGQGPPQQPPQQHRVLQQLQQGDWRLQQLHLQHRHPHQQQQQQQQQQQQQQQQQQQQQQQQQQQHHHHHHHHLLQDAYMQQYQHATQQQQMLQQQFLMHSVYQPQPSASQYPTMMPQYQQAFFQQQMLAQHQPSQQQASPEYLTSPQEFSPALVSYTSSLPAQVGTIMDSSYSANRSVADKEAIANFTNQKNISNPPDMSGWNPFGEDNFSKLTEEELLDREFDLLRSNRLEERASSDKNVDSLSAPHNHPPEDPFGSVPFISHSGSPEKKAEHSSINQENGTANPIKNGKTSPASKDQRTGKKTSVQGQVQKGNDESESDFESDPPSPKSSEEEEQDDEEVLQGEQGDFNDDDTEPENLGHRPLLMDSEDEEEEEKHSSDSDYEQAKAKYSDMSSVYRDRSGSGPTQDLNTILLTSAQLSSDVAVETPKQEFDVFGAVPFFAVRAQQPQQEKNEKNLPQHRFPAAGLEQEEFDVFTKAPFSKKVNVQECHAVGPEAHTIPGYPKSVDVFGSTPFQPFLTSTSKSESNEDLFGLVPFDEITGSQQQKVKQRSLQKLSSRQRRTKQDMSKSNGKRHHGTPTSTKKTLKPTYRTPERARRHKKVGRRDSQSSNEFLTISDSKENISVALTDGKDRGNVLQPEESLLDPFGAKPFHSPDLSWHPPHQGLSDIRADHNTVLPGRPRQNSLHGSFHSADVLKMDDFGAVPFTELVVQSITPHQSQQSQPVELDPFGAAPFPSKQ

| Structure (SMILES) | Kd [1] [µM] | Kd ([2]; read-out: GAK Kd) [nM] | Kd [3] [µM] | Kd [4] [nM] | signaling of cytokines implicated in COVID-19 infection (IL-2, IL-6, IL-10, IFN-γ, G-CSF), pSTAT inhibition [5] | reduction of viral load [6] | liver cell injury / spheroid viability [7] | change from baseline in plasma IL-6 at week 12 [8] | clinical outcome of case series ([9]; 4 mg (Patients A, C, D) or 2 mg (Patient B) once daily oral, 10-12 days) | tolerability ([9]; four patients, 2 or 4 mg once daily oral, 10-12 days) | liver aminotransferases ([9]; four patients, during baricitinib treatment) | time to improvement of liver enzyme elevations ([9]; without interrupting baricitinib treatment) [h] | unbound fraction of free bioavailable drug, AUC ([10]; RA patient sera, baricitinib 2 mg, ref data on file) [nM] | half-life ([10]; RA patients, ref Eli Lilly and Company, 2019) | main clearance mechanism ([10]; ref Eli Lilly and Company, 2019) | incidence rate of serious infection [11] | binding affinity for JAK2 [12] [nM] | Kd [2] [nM] |
| --- | --- | --- | --- | --- | --- | --- | --- | --- | --- | --- | --- | --- | --- | --- | --- | --- | --- | --- |
| NC(=O)Nc1cc(-c2cccc(F)c2)sc1C(=O)N[C@H]1CCCNC1 [AZD7762] | 0.013 | 1.4 | 1.9 | 2.9 |  |  |  |  |  |  |  |  |  |  |  |  |  |  |
| CCS(=O)(=O)N1CC(CC#N)(n2cc(-c3ncnc4[nH]ccc34)cn2)C1 [Baricitinib] |  |  |  |  | inhibited signaling | 30–40% | did not result in liver cell injury | significant reduction | improved lung function, resolution of their illness, and reductions in viral load, plasma IL‐6, ferritin, and CRP levels | well‐tolerated | Transient increases | ≤ 72 | 326 | approximately 12 h | renal elimination | 2.8 /100 patient‐years | 5.7 |  |
| CC[C@@H]1CN(C(=O)NCC(F)(F)F)C[C@@H]1c1cnc2cnc3[nH]ccc3n12 [Upadacitinib] | 11 |  | 9.3 |  |  |  |  |  |  |  |  |  |  |  |  |  |  | 2200 |
